Target: T1, 11β-HSD1 (Homo sapiens, UniProt P28845)
T1 construct: detecting cortisol generated from cortisterone by human liver microsomes; from tissue; host or cells: human liver microsomes
Test: In vitro inhibition of 11β-HSD1, HTRF detection of cortisol generated from cortisone by human liver microsomes
Assay type: biochemical
Settings: 11β-HSD IC50 (nM), 1 hour at 37° C., pH 6.0, NADPH 200 μM, cortisone 80 nM, inhibition relative to carbenoxolone signal
Outline: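 Inhibition expressed against the carbenoxolone signal and fitted to IC50 curves. Readout: HTRF competition between microsomal cortisol and XL665-labelled cortisol for Eu-cryptate anti-cortisol antibody (typically 2 h), with emission ratio 665/615 calibrated to cortisol concentration.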

T1 sequence (P28845 whole entry): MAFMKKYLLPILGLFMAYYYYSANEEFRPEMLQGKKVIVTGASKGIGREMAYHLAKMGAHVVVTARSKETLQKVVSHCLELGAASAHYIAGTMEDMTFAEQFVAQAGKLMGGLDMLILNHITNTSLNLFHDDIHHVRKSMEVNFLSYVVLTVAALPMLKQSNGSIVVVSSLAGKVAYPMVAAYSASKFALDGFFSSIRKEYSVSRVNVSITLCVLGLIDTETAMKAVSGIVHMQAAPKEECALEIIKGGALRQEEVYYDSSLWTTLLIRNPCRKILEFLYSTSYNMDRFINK

Structure (SMILES)	IC50
CC1(C)[C@H]2Cc3ccccc3[C@]1(C)CCN2C(=O)c1cc(Cl)c(N)c(Cl)c1 [Example 283, (4-Amino-3,5-dichloro-phenyl)-[(2R,6S)-6,11,11-trimethyl-1,2,5,6-tetrahydro-4H-2,6-methano-benzo[d]azocin-3-yl]-methanone]	55 nM
CC1(C)[C@H]2Cc3c(O)cccc3[C@]1(C)CCN2C(=O)c1ccc2c(c1)NC(=O)C2 [Example 33, 6-[(2R,6S)-10-Hydroxy-6,11,11-trimethyl 1,2,5,6-tetrahydro-4H-2,6-methano-benzo[d]azocine-3-carbonyl]-1,3-dihydro-indol-2-one]	3490 nM
CC1(C)[C@H]2Cc3c(O)cccc3[C@]1(C)CCN2C(=O)c1coc2ccccc12 [Example 198, Benzofuran-3-yl-[(2R,6S)-10-hydroxy-6,11,11-trimethyl-1,2,5,6-tetrahydro-4H-2,6-methano-benzo[d]azocin-3-yl]-methanone]	435 nM
COC(=O)c1cccc(C(=O)N2CC[C@@]3(C)c4cccc(O)c4C[C@@H]2C3(C)C)c1 [Example 30, 3-[(2R,6S)-10-Hydroxy-6,11,11-trimethyl-1,2,5,6-tetrahydro-4H-2,6-methano-benzo[d]azocine-3-carbonyl]-benzoic acid methyl ester]	1400 nM
CN(C(=O)c1ccc(C(=O)N2CC[C@@]3(C)c4cccc(O)c4C[C@@H]2C3(C)C)cc1)c1ccccc1 [Example 208, 4-[(2R,6S)-10-Hydroxy-6,11,11-trimethyl-1,2,5,6-tetrahydro-4H-2,6-methano-benzo[d]azocine-3-carbonyl]-N-methyl-N-phenyl-benzamide]	238 nM
Cc1nc2cc3c(cc2o1)C[C@H]1N(C(=O)c2ccc4nc[nH]c4c2)CC[C@]3(C)C1(C)C [Example 301, (3H-Benzoimidazol-5-yl)-[(6R,10S)-5,6,7,8,9,10-hexahydro-2,10,12,12-tetramethyl-6,10-methano-oxazolo[4,5-i][3]benzazocin-7-yl]-methanone]	32 nM
CC(=O)Nc1cccc(C(=O)N2CC[C@@]3(C)c4cccc(O)c4C[C@@H]2C3(C)C)c1 [Example 9, N-{3-[(2R,6S)-10-Hydroxy-6,11,11-trimethyl-1,2,5,6-tetrahydro-4H-2,6-methano-benzo[d]azocine-3-carbonyl]-phenyl}-acetamide]	1980 nM
CC1(C)[C@H]2Cc3c(O)cccc3[C@]1(C)CCN2C(=O)c1csc2ccccc12 [Example 217, Benzo[b]thiophen-3-yl-[(2R,6S)-10-hydroxy-6,11,11-trimethyl-1,2,5,6-tetrahydro-4H-2,6-methano-benzo[d]azocin-3-yl]-methanone]	410 nM
CC1(C)[C@H]2Cc3cc4oc([C@H]5CCCO5)nc4cc3[C@]1(C)CCN2C(=O)c1ccc2nc[nH]c2c1 [Example 337, (3H-Benzoimidazol-5-yl)-[(6R,10S)-5,6,7,8,9,10-hexahydro-10,12,12-trimethyl-2-[(R)-tetrahydrofuran-2-yl]-6,10-methano-oxazolo[4,5-i][3]benzazocin-7-yl]-methanone]	52 nM
CC1(C)[C@H]2Cc3cc4nc([C@@H]5CCCO5)[nH]c4cc3[C@]1(C)CCN2C(=O)c1ccc2nc[nH]c2c1 [Example 275, (3H-Benzoimidazol-5-yl)-[(6R,10S)-5,6,7,8,9,10-hexahydro-10,12,12-trimethyl-2-[(S)-tetrahydrofuran-2-yl]-6,10-methano-imidazo[5,4-i][3]benzazocin-7-yl]-methanone]	25 nM
CC12CCN(C(=O)c3ccc4nc[nH]c4c3)C(Cc3ccc(O)cc31)C2 (stereo not shown) [Example 51, (3H-Benzoimidazol-5-yl)-(8-hydroxy-6-methyl-1,2,5,6-tetrahydro-4H-2,6-methano-benzo[d]azocin-3-yl)-methanone]	629 nM
CC1(C)[C@H]2Cc3ccccc3[C@]1(C)CCN2C(=O)c1ccc2nccnc2c1 [Example 278, Quinoxalin-6-yl-[(2R,6S)-6,11,11-trimethyl-1,2,5,6-tetrahydro-4H-2,6-methano-benzo[d]azocin-3-yl]-methanone]	438 nM
CC1(C)[C@H]2Cc3c(O)cccc3[C@]1(C)CCN2C(=O)c1cccnc1 [Example 127, [(2R,6S)-10-Hydroxy-6,11,11-trimethyl-1,2,5,6-tetrahydro-4H-2,6-methano-benzo[d]azocin-3-yl]-pyridin-3-yl-methanone]	1470 nM
C[C@@H]1[C@H]2Cc3cc4nc(C5CC5)oc4cc3[C@]1(C)CCN2C(=O)c1ccc2nc[nH]c2c1 [Example 311, (3H-Benzoimidazol-5-yl)-[(6R,10R,12S)-2-cyclopropyl-5,6,7,8,9,10-hexahydro-10,12-dimethyl-6,10-methano-oxazolo[5,4-i][3]benzazocin-7-yl]-methanone]	424 nM
Cc1cc(C(=O)N2CC[C@@]3(C)c4cccc(O)c4C[C@@H]2C3(C)C)n(C)n1 [Example 215, (2,5-Dimethyl-2H-pyrazol-3-yl)-[(2R,6S)-10-hydroxy-6,11,11-trimethyl-1,2,5,6-tetrahydro-4H-2,6-methano-benzo[d]azocin-3-yl]-methanone]	1730 nM
CNc1ccc(C(=O)N2CC[C@@]3(C)c4cccc(O)c4C[C@@H]2C3(C)C)cc1 [Example 48, [(2R,6S)-10-Hydroxy-6,11,11-trimethyl-1,2,5,6-tetrahydro-4H-2,6-methano-benzo[d]azocin-3-yl]-(4-methylamino-phenyl)-methanone]	364 nM
CCOC(=O)c1cccc2c1C[C@H]1N(C(=O)c3ccc4nc[nH]c4c3)CC[C@]2(C)C1(C)C [Example 95, (2R,6S)-3-(1H-Benzoimidazole-5-carbonyl)-6,11,11-trimethyl-1,2,3,4,5,6-hexahydro-2,6-methano-benzo[d]azocine-10-carboxylic acid ethyl ester]	3840 nM
Cn1cnc2ccc(C(=O)N3CC[C@@]4(C)c5cccc(O)c5C[C@@H]3C4(C)C)cc21 [Example 81, [(2R,6S)-10-Hydroxy-6,11,11-trimethyl-1,2,5,6-tetrahydro-4H-2,6-methano-benzo[d]azocin-3-yl]-(3-methyl-3H-benzoimidazol-5-yl)-methanone]	463 nM
CC1(C)[C@H]2Cc3ccccc3[C@]1(C)CCN2C(=O)c1ccc2[nH]ncc2c1 [Example 293, (1H-Indazol-5-yl)-[(2R,6S)-6,11,11-trimethyl-1,2,5,6-tetrahydro-4H-2,6-methano-benzo[d]azocin-3-yl]-methanone]	27 nM
CC1(C)[C@H]2Cc3c(O)cccc3[C@]1(C)CCN2C(=O)c1cccc(C(N)=O)c1 [Example 41, 3-[(2R,6S)-10-Hydroxy-6,11,11-trimethyl-1,2,5,6-tetrahydro-4H-2,6-methano-benzo[d]azocine-3-carbonyl]-benzamide]	589 nM
CC1(C)[C@H]2Cc3cc4nc[nH]c4cc3[C@]1(C)CCN2C(=O)c1ccc2nc[nH]c2c1 [Example 239, (3H-Benzoimidazol-5-yl)-[(6R,10S)-5,6,7,8,9,10-hexahydro-10,12,12-trimethyl-6,10-methano-1H-imidazo[5,4-i][3]benzazocin-7-yl]-methanone]	24 nM
CC12CCN(C(=O)c3ccc4ncsc4c3)C(Cc3ccccc31)C2 (stereo not shown) [Example 174, Benzothiazol-6-yl-(6-methyl-1,2,5,6-tetrahydro-4H-2,6-methano-benzo[d]azocin-3-yl)-methanone]	406 nM

— patent US8859580B2 (Boehringer Ingelheim International GmbH, priority 2007, dated 2014)
